This is an account of results in the METLIN SMRT retention time set (Domingo-Almenara et al. 2019).

SMILES strings stand for the structures.

The nature of the data set: gradient 5% acetonitrile 3 min, to 50% in 2 min, to 85% in 15 min, held 3 min, 100 µL/min. The settings on record: column: Zorbax Extend-C18 2.1 x 50 mm; eluents: water / acetonitrile, 0.1% formic acid. The method, boiled down:
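Pure standards were run in mixtures of ~100 molecules by HPLC coupled to a quadrupole time-of-flight mass spectrometer. The column was a Zorbax Extend-C18 (2.1 × 50 mm, 1.8 μm) at 100 μL/min, with water and acetonitrile each containing 0.1% formic acid, in positive and negative ionization mode. Dead and dwell volumes were 40 μL and 900 μL. Retention time was taken from computationally picked adduct peaks, each manually inspected, with data collected over 3 months.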
Turning to `COc1cc(-c2cccc(Cl)c2)nc2ccc(NC(=O)c3ccco3)cc12`, the RP-LC retention time came out at 790 s. Next, `CCC(C(=O)NCCCN1CCN(CC)CC1)n1nc(C)c2sc3ccccc3c2c1=O` (centres undefined): 624 s; `CN(C)c1ccc(N2C=C(C(=O)N3CCCC3)S(=O)(=O)c3ccc(Cl)cc32)cc1`: 928 s; `CC(C)Cn1c(-c2ccc(N(C)C)cc2)nc2ccccc21`: 748 s. Next, `O=C(NCc1ccc(N2CCOCC2)cc1)c1cn2c(n1)CSCC2`: 604 s; `c1ccc(-c2nc3nccc(-c4ccncc4)n3n2)cc1`: 699 s; `COc1ccc(NC(=O)Cn2c(C)cc(-c3nnc(C4CC4)o3)c2C)cc1`: 779 s. With `Cc1ccc(NC(=O)Cn2c(C)nc3c(sc4nc(-c5ccccc5)ccc43)c2=O)cc1`, the RP-LC retention time is 1060 s. The molecule `O=C(NC1CCCCC1)N1CCN(CCn2c(-c3ccncc3)nc3cccnc32)CC1` registered an RP-LC retention time of 585 s. The same measure for `COC(=O)c1c(-c2ccccc2)noc1NCc1cccc(OC)c1`: 677 s; for `Cc1ccc(-c2nc(-c3ccc(S(=O)(=O)N4CCOCC4)cc3)no2)cc1F`: 1190 s. Consider `COc1ccc(C(=O)CC2(O)C(=O)Nc3ccccc32)cc1` (centres undefined), for which the RP-LC retention time came to 669 s.

`COC(=O)c1cccc(NC(=O)N2CCN(Cc3nc4ccc(Cl)cc4o3)CC2)c1` displayed an RP-LC retention time of 756 s.

For the molecule `COCCN1C(=O)CCc2cc(NS(=O)(=O)c3ccc(F)cc3F)ccc21`, the RP-LC retention time was 723 s. The same measure for `Cc1cc(C2CCCN2C(=O)Cc2c(F)cccc2Cl)on1` (centres undefined): 848 s; for `COc1ccc(NC(=O)N2CCCC(C)(C(=O)NCc3ccccc3)C2)c(OC)c1` (centres undefined): 846 s. The same measure for `CCc1nc2cccnc2n1CCN1CCN(C(=O)Nc2ccc(C)cc2Cl)CC1`: 616 s; for `CCN1c2ccc(C)cc2C(=O)NC12CCN(C(=O)Cc1ccccc1)CC2`: 820 s.

Turning to `CCOc1ccc(-n2ccn3cc(-c4cc(OC)ccc4OC)nc3c2=O)cc1`, the RP-LC retention time turned out to be 895 s. Take `CC(=O)c1ccc(NC(=O)N(C)C)cc1`: the RP-LC retention time is 588 s. Next, `Cc1cc2c(=O)n(CC(=O)NCc3ccc(F)cc3)c3cccnc3n2n1`: 693 s; `Cc1ccc2nc(C(=O)NCc3ccccc3C)cn2c1`: 686 s; `NC(=O)c1[nH]c2ccc(F)cc2c1N1CCCC1=O`: 637 s.

`Cc1ccc(C(=O)N2CCc3sc(C(=O)N4CCN(C(C)C)CC4)cc3C2)cc1` gave an RP-LC retention time of 625 s. The molecule `Cc1cc(C)c(-c2noc(C)n2)c(NC(=O)c2ccccc2Cl)n1` gave an RP-LC retention time of 744 s. `Cc1nc(C)c(C(=O)Nc2nc(-c3ccc(Cl)cc3)c(C)s2)s1` came in with an RP-LC retention time of 1060 s. The same measure for `Cc1ccc(-c2nnc(-c3cccc(S(=O)(=O)NC(C)C)c3)o2)cc1`: 984 s; for `COc1ccccc1NC(=O)N1CC(C)Oc2ccc(C)cc21` (centres undefined): 1130 s. Molecule `CCc1ccccc1S(=O)(=O)N1CCC(N2CCN(Cc3ccccc3)C(=O)C2=O)CC1` had an RP-LC retention time of 864 s. As for `Cc1cccc2c1ncn1c(=O)n(CC(=O)NCc3ccccc3Cl)nc21`, the RP-LC retention time is 627 s. Next, `O=C(Cn1ncc2c3ccccc3n(Cc3ccccc3)c2c1=O)N1CCN(c2ncccn2)CC1`: 902 s; `COc1ccc(Nc2nc(-c3ccc(OC)cc3)c(CCC(=O)O)s2)cc1`: 756 s. The same measure for `CCn1c(C2CCN(C(=O)c3ccc(C(F)(F)F)s3)C2)nc2cccnc21` (centres undefined): 782 s; for `O=C(NCC1(c2ccc(F)cc2)CC1)c1ccsc1`: 821 s; for `Cc1c(-c2nn3c(Cc4ccccc4)nnc3s2)nnn1-c1ccccc1`: 939 s.

For the molecule `COc1ccc(-n2nc3c(N4CCCC(C(=O)NCCc5ccccc5)C4)nnc(C)c3c2C)cc1` (centres undefined), the RP-LC retention time was 740 s. The same measure for `Cn1cccc1C(=O)NCCn1c(=O)n(Cc2ccc(F)cc2)c2cccnc21`: 804 s; for `COc1ccc2c(c1)C1CC(C)(NC(=O)C1S(=O)(=O)c1ccc(C(C)C)cc1)O2` (centres undefined): 1010 s; for `Cc1nn(C(C)C)c(C)c1S(=O)(=O)N1CCN(C(=O)CCc2c[nH]c3ccccc23)CC1`: 829 s. With `Cc1ccc(-c2nc3ccccn3c2NC(=O)NCc2ccc(F)cc2)cc1`, the RP-LC retention time was 681 s. In turn, `CC1CCCN(c2ccn3c(=O)n(CC(=O)Nc4cc(F)cc(F)c4)nc3n2)C1` (centres undefined) came in with an RP-LC retention time of 849 s. Molecule `COc1ccc(OC)c(NS(=O)(=O)c2c(C)sc(C)c2-c2cc(C(F)(F)F)on2)c1` gave an RP-LC retention time of 1150 s. The same measure for `COc1ccccc1-c1nc(-c2ccc(S(=O)(=O)N3CCCC3)cc2)no1`: 1080 s; for `CCOc1ccccc1NC(=O)N1CCC(n2cnc3cccnc32)CC1`: 686 s; for `COc1ccccc1N1CCN(C(=O)CN2C(=O)NC(c3ccc(Cl)cc3)C3=C2COC3=O)CC1` (centres undefined): 770 s. The same measure for `CC(C)Cn1cc(S(=O)(=O)Nc2cc(F)ccc2F)c2cccnc21`: 994 s; for `CCOc1ccccc1NC(=O)CN1CCC(c2nnc(-c3ccco3)s2)CC1`: 594 s. Next, `Cc1csc(-c2cc(S(=O)(=O)NCCCc3ccccc3)c(C)s2)n1`: 1080 s. `O=C(NCc1ccco1)C1CCCN(c2nnc3ccc(Cl)cn23)C1` (centres undefined) showed an RP-LC retention time of 687 s. Next, `CCN1c2ccc(C(=O)Nc3ccc4c(c3)OCCO4)cc2-c2ccccc2S1(=O)=O`: 990 s; `O=C(C1=NN(Cc2ccccc2F)c2ccccc2S1(=O)=O)N1CCCCC1`: 939 s. In the case of `COCCNC(=O)Cn1c(CO)cnc1SCC(=O)Nc1ccc2c(c1)OCCO2`, the RP-LC retention time was determined as 554 s.

For the molecule `O=C(NCc1ccco1)c1ccc2c(c1)CCCN2C(=O)c1ccc(Cl)cc1`, the RP-LC retention time came out at 852 s. Next, `O=C(NCC(O)(c1ccccc1)C(F)(F)F)NC1CCCCC1` (centres undefined): 879 s; `Cc1ccc(Sc2nccnc2N2CCC(C(=O)N3CCN(c4ccccc4C)CC3)CC2)cc1`: 1330 s; `CC(C)(C)C(=O)C(Oc1ccc(Cl)cc1)n1ccnc1` (centres undefined): 780 s. For the molecule `c1cc(-c2noc(-c3ccoc3)n2)cc(-c2ccn[nH]2)c1`, the RP-LC retention time stood at 839 s. Turning to `O=C(CN1C(=O)C(C(=O)N2CCCC2)Sc2ccccc21)Nc1cccc(F)c1` (centres undefined), the RP-LC retention time amounted to 1020 s. For `CCN(CC)C(=O)c1ccc2c(c1)N(CC(=O)NC(C)C)C(=O)C1CCCCN21` (centres undefined), the RP-LC retention time worked out at 735 s. The same measure for `CN(C)CCn1c2c(c(SCC(=O)Nc3cccc(Cl)c3)nc1=O)CCC2`: 651 s; for `CCc1ccc(-n2nc(N3CCCC(C(=O)NCc4cccc(F)c4)C3)ccc2=O)cc1` (centres undefined): 899 s; for `O=C1CCC(NC(=O)OCc2ccccc2)(C(=O)OCc2ccccc2)O1` (centres undefined): 830 s. The same measure for `COc1ccc(Cl)cc1N1CC(c2nc3ccccc3n2CCN2CCOCC2)CC1=O` (centres undefined): 617 s; for `COc1cccc(N2CCN(C(=O)c3cn4ccccc4n3)CC2)c1`: 644 s. The molecule `CC1CCN(c2cncnc2-n2cc(NC(=O)Nc3cccc(F)c3)cn2)CC1` yielded an RP-LC retention time of 772 s.

With `Cc1ccc(-c2noc(C(=O)N3CCCC3)n2)cc1S(=O)(=O)N1CCN(c2ccccn2)CC1`, the RP-LC retention time was 700 s. The same measure for `O=C(CN1C(=O)c2ccccc2C1=O)Nc1cccc(-c2cn3c(n2)SCC3)c1`: 581 s.

Turning to `CC(NC(=O)Nc1ccccc1C(F)(F)F)C(=O)N1CCc2ccccc21` (centres undefined), the RP-LC retention time was determined as 907 s. Consider `CCNC(=O)N(CCCOC)CC(=O)N1CCc2sccc2C1COc1ccc(Cl)c(C)c1` (centres undefined), for which the RP-LC retention time is 965 s. The same measure for `O=C(NCc1ccc(Br)cc1)C1CCCN(C(=O)c2cc(-c3ccncc3)n[nH]2)C1` (centres undefined): 623 s; for `O=C(COc1ccc2ccccc2c1)Nc1nc(-c2ccccc2)cs1`: 1180 s; for `O=C(Nc1nc2ccccc2n1CCN1CCOCC1)c1ccc(Cl)cc1`: 633 s. Molecule `CCC(C(=O)N1CCN(c2ccccn2)CC1)n1nc(C)c2nn(-c3ccccc3)c(C)c2c1=O` (centres undefined) returned an RP-LC retention time of 669 s. The same measure for `C#CCOCC1CCCN(S(=O)(=O)Cc2ccccc2)C1` (centres undefined): 840 s; for `CCc1ccccc1NC(=O)C1CCN(S(=O)(=O)c2ccc3c(c2)NC(=O)C(C)O3)CC1` (centres undefined): 838 s; for `CC(C)c1ccc(NC(=O)Cc2csc3nc(-c4ccccc4)cn23)cc1`: 970 s. Next, `CCOC(=O)c1c(C)oc2nc(C)nc(NCc3ccc(OC)cc3)c12`: 1080 s. The same measure for `CC1=NS(=O)(=O)N(C)C=C1C(=O)OCc1ccccc1C`: 616 s. For `COc1ccc(C2(C(=O)NCc3nn(C)c4c3CN(C)CC4)CC2)cc1`, the RP-LC retention time is 865 s.
